In this assay the target is T1, KRAS G12C 1-169, his-tagged protein, GDP-loaded (Homo sapiens, UniProt P01116, G12C).
T1 construct: KRAS G12C 1-169, his-tagged protein, GDP-loaded
Put plainly: Biochemical assay: covalent modification of KRAS G12C measured by mass spectrometry (RapidFire/TOF or Q-Exactive). The conditions noted are these: covalent binding to KRAS G12C. In a few lines: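 Covalent adduct formation read by intact-mass spectrometry (TOF or Q Exactive Plus, charge envelopes deconvoluted into modified and unmodified species) after formic acid quench. Reactions contained 2 μM GDP-bound KRAS G12C 1-169 (his-tag) in Hepes/NaCl/MgCl2 buffer plus 10, 30 or 100 μM final compound, held 30 min, 2 h or 24 h at room temperature.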

Among the data in US10829458B2 (Araxes Pharma LLC, priority 2015, dated 2020) are Binding % values, retold here.

Take `C=CC(=O)N1CCN(c2nc(NC3CCN(C(C)C)CC3)nc3c(F)c(-c4cc(O)cc5ccccc45)c(Cl)cc23)CC1` [Example I-77, 1-(4-(6-chloro-8-fluoro-7-(3-hydroxy-naphthalen-1-yl)-2-(1-isopropyl-piperidin-4-ylamino)quinazolin-4-yl)piperazin-1-yl)prop-2-en-1-one]: where the note is “compounds of structure (I)”, the Binding % result is listed as “+++ (+++ indicates binding activity greater than 90%)”.

Regarding `C=CC(=O)N1CCN(c2nc(NC3CCN(c4ncccn4)CC3)nc3c(F)c(-c4c(C)ccc5[nH]ncc45)c(Cl)cc23)CC1` [Example I-184, 1-(4-(6-chloro-8-fluoro-7-(5-methyl-1H-indazol-4-yl)-2-((1-(pyrimidin-2-yl)piperidin-4-yl)amino)quinazolin-4-yl)piperazin-1-yl) prop-2-en-1-one], the Binding % result (compounds of structure (I)) is on record as “+ (+ indicates binding activity up to 50%)”.

As to `C=CC(=O)N1CCN(c2nc(NC3CCN(C(C)=O)CC3)nc3c(F)c(-c4c(O)cccc4F)c(Cl)cc23)CC1` [Example I-70, 1-(4-(2-(1-acetyl-piperidin-4-ylamino)-6-chloro-8-fluoro-7-(2-fluoro-6-hydroxyphenyl)quinazolin-4-yl)piperazin-1-yl) prop-2-en-1-one], where the note is “compounds of structure (I)”, the Binding % result is recorded as “+++ (+++ indicates binding activity greater than 90%)”.

Take `C=CC(=O)N1CCN(c2nc(OCCc3ccccn3)nc3c(F)c(-c4cc(OC)cc5ccccc45)c(Cl)cc23)CC1` [Example I-54, 1-(4-(6-chloro-8-fluoro-7-(3-methoxy-naphthalen-1-yl)-2-(2-(pyridin-2-yl)ethoxy)quinazolin-4-yl)piperazin-1-yl)prop-2-en-1-one]: where the note is “compounds of structure (I)”, the Binding % entry is on record as “+ (+ indicates binding activity up to 50%)”.

Take `C=CC(=O)N1CCN(c2nc(CCN(C)C)nc3c(F)c(-c4c(C)ccc5[nH]ncc45)c(Cl)cc23)CC1` [Example I-34, 1-(4-(6-chloro-2-(2-(dimethyl-amino)ethyl)-8-fluoro-7-(5-methyl-1H-indazol-4-yl)quinazolin-4-yl)piperazin-1-yl)prop-2-en-1-one]: the Binding % entry (compounds of structure (I)) is given as “+++ (+++ indicates binding activity greater than 90%)”.

Take `C=CC(=O)N1CCN(c2nc(OCC(=O)N(C)C)nc3c(F)c(-c4c(O)cccc4F)c(Cl)cc23)CC1` [Example I-8, 2-(4-(4-acryloyl-piperazin-1-yl)-6-chloro-8-fluoro-7-(2-fluoro-6-hydroxyphenyl)quinazolin-2-yloxy)-N,N-dimethyl-acetamide]: the Binding % result (compounds of structure (I)) is on record as “+++ (+++ indicates binding activity greater than 90%)”.

On to `C=CC(=O)N1CCN(c2nc(OCC3CCN(C4CC4)CC3)nc3c(F)c(-c4c(O)cccc4F)c(Cl)cc23)CC1` [Example I-172, 1-(4-(6-chloro-2-((1-cyclopropyl-piperidin-4-yl)methoxy)-8-fluoro-7-(2-fluoro-6-hydroxyphenyl)quinazolin-4-yl)piperazin-1-yl) prop-2-en-1-one], for which the Binding % result (compounds of structure (I)) is reported as “+++ (+++ indicates binding activity greater than 90%)”.

For `C=CC(=O)N1CCN(c2nc(NC3CCN(CC4CC4)CC3)nc3c(F)c(-c4c(O)cccc4F)c(Cl)cc23)CC1` [Example I-110, 1-(4-(6-chloro-2-(1-(cyclopropyl-methyl)piperidin-4-ylamino)-8-fluoro-7-(2-fluoro-6-hydroxyphenyl)quinazolin-4-yl)piperazin-1-yl) prop-2-en-1-one], under “compounds of structure (I)”, the Binding % result was “+++ (+++ indicates binding activity greater than 90%)”.

For `C=CC(=O)N1CCN(c2nc(OC3CCOCC3)nc3c(F)c(-c4c(O)cccc4F)c(Cl)cc23)CC1` [Example I-18, 1-(4-(6-chloro-8-fluoro-7-(2-fluoro-6-hydroxyphenyl)-2-(tetrahydro-2H-pyran-4-yloxy)quinazolin-4-yl)piperazin-1-yl)prop-2-en-1-one], the Binding % entry (compounds of structure (I)) is recorded as “+++ (+++ indicates binding activity greater than 90%)”.

Regarding `C=CC(=O)N1CCN(c2nc(Oc3cn[nH]c3)nc3c(F)c(-c4c(O)cccc4F)c(Cl)cc23)CC1` [Example I-64, 1-(4-(2-(1H-pyrazol-4-yloxy)-6-chloro-8-fluoro-7-(2-fluoro-6-hydroxyphenyl)quinazolin-4-yl)piperazin-1-yl) prop-2-en-1-one], the Binding % entry (compounds of structure (I)) is “+++ (+++ indicates binding activity greater than 90%)”.

On to `C=CC(=O)N1CCN(c2nc(NC3CCN(C4CC4)CC3)nc3c(F)c(-c4c(C)ccc5cn[nH]c45)c(Cl)cc23)CC1` [Example I-196, 1-(4-(6-chloro-2-((1-cyclo-propylpiperidin-4-yl)amino)-8-fluoro-7-(6-methyl-1H-indazol-7-yl)quinazolin-4-yl)piperazin-1-yl) prop-2-en-1-one], for which the Binding % result (compounds of structure (I)) was “++ (++ indicates binding activity from 50 to 90%)”.

`C=CC(=O)Nc1cccc(-c2ncnc3c(F)c(-c4c(O)cccc4F)c(Cl)cc23)c1` [II-11, N-(3-(6-chloro-8-fluoro-7-(2-fluoro-6-hydroxyphenyl)quinazolin-4-yl)phenyl)acrylamide]: the Binding % entry (compounds of structure (II)) was “+ (+ indicates binding activity up to 50%)”.

Consider `C=CC(=O)N1CCN(c2nc(NC3CCN(C4CC4)CC3)nc3c(F)c(-c4c(O)cccc4F)c(Cl)cc23)CC1` [Example I-72, 1-(4-(6-chloro-2-(1-cyclopropyl-piperidin-4-ylamino)-8-fluoro-7-(2-fluoro-6-hydroxyphenyl)quinazolin-4-yl)piperazin-1-yl) prop-2-en-1-one], for which the Binding % entry (compounds of structure (I)) was “+++ (+++ indicates binding activity greater than 90%)”.

Turning to `C=CC(=O)N1CCN(c2nc(N)nc3c(F)c(-c4cc(O)cc5ccccc45)c(Cl)cc23)CC1` [Example I-191, 1-(4-(2-amino-6-chloro-8-fluoro-7-(3-hydroxy-naphthalen-1-yl)quinazolin-4-yl)piperazin-1-yl) prop-2-en-1-one], the Binding % result (compounds of structure (I)) is “+++ (+++ indicates binding activity greater than 90%)”.

Take `C=CC(=O)N1CCN(c2nc(NC3CCOCC3)nc3c(F)c(-c4cc(O)cc5ccccc45)c(Cl)cc23)CC1` [Example I-69, 1-(4-(6-chloro-8-fluoro-7-(3-hydroxy-naphthalen-1-yl)-2-(tetrahydro-2H-pyran-4-ylamino)quinazolin-4-yl)piperazin-1-yl)prop-2-en-1-one]: the Binding % result (compounds of structure (I)) is “+++ (+++ indicates binding activity greater than 90%)”.

With `C=CC(=O)N1CCN(c2ncnc3c(F)c(-c4c(O)cccc4F)c(Cl)cc23)CC12CC2` [III-10, 1-(7-(6-chloro-8-fluoro-7-(2-fluoro-6-hydroxy-phenyl)quinazolin-4-yl)-4,7-diazaspiro [2.5]octan-4-yl)prop-2-en-1-one], the Binding % result (compounds of structure (III)) is reported as “+ (+ indicates binding activity up to 50%)”.

As for `C=CC(=O)N1CCN(c2nc(OCCP(C)(C)=O)nc3c(F)c(-c4c(O)cccc4F)c(Cl)cc23)CC1` [Example I-206, 1-(4-(6-chloro-2-(2-(dimethyl-phosphoryl)ethoxy)-8-fluoro-7-(2-fluoro-6-hydroxyphenyl)quinazolin-4-yl)piperazin-1-yl) prop-2-en-1-one], the Binding % entry (compounds of structure (I)) is listed as “+++ (+++ indicates binding activity greater than 90%)”.

In the case of `C=CC(=O)N1CCN(c2nc(OCCO)nc3c(F)c(-c4cc(O)cc5ccccc45)c(Cl)cc23)CC1` [Example I-83, 1-(4-(6-chloro-8-fluoro-2-(2-hydroxyethoxy)-7-(3-hydroxy-naphthalen-1-yl)quinazolin-4-yl)piperazin-1-yl)prop-2-en-1-one], where the note is “compounds of structure (I)”, the Binding % result is on record as “+++ (+++ indicates binding activity greater than 90%)”.

Regarding `C=CC(=O)N1C[C@@H](C)N(c2ncnc3c(F)c(-c4c(C)ccc5cn[nH]c45)c(Cl)cc23)[C@@H](C)C1` [III-42, 1-((3S,5R)-4-(6-chloro-8-fluoro-7-(6-methyl-1H-indazol-7-yl)quinazolin-4-yl)-3,5-dimethyl-piperazin-1-yl)prop-2-en-1-one], the Binding % result (compounds of structure (III)) is reported as “++ (++ indicates activity from 50% to 90%)”.

For the compound `C=CC(=O)Nc1cc(-c2ncnc3c(F)c(-c4c(O)cccc4F)c(Cl)cc23)ccn1` [II-12, N-(4-(6-chloro-8-fluoro-7-(2-fluoro-6-hydroxyphenyl)quinazolin-4-yl)pyridin-2-yl)acrylamide], the Binding % entry (compounds of structure (II)) was “+ (+ indicates binding activity up to 50%)”.

Consider `C=CC(=O)N1CCN(c2nc(NCCN(CC)CC)nc3c(F)c(-c4c(C)ccc5[nH]ncc45)c(Cl)cc23)CC1` [Example I-161, 1-(4-(6-chloro-2-(2-(diethyl-amino)ethylamino)-8-fluoro-7-(5-methyl-1H-indazol-4-yl)quinazolin-4-yl)piperazin-1-yl) prop-2-en-1-one], for which, where the note is “compounds of structure (I)”, the Binding % result is on record as “+++ (+++ indicates binding activity greater than 90%)”.

In the case of `C=CC(=O)N1CCN(c2nc(OC3CCN(C)CC3)nc3c(F)c(-c4c(O)cccc4F)c(Cl)cc23)CC1` [Example I-92, 1-(4-(6-chloro-8-fluoro-7-(2-fluoro-6-hydroxyphenyl)-2-(1-methyl-piperidin-4-yloxy)quinazolin-4-yl)piperazin-1-yl)prop-2-en-1-one], the Binding % result (compounds of structure (I)) is “+++ (+++ indicates binding activity greater than 90%)”.

As for `C=CC(=O)N1CCN(c2nc(OCCN3CC[C@H](OC)C3)nc3c(F)c(-c4c(O)cccc4F)c(Cl)cc23)CC1` [Example I-33, 1-(4-(6-chloro-8-fluoro-7-(2-fluoro-6-hydroxyphenyl)-2-(2-((S)-3-methoxy-pyrrolidin-1-yl)ethoxy)quinazolin-4-yl)piperazin-1-yl)prop-2-en-1-one], where the note is “compounds of structure (I)”, the Binding % result is given as “+++ (+++ indicates binding activity greater than 90%)”.

Take `C=CC(=O)N1CCN(c2nc(NCCN3CC[C@@H](O)C3)nc3c(F)c(-c4c(O)cccc4F)c(Cl)cc23)CC1` [Example I-56, 1-(4-(6-chloro-8-fluoro-7-(2-fluoro-6-hydroxyphenyl)-2-(2-((R)-3-hydroxy-pyrrolidin-1-yl)ethylamino)quinazolin-4-yl)piperazin-1-yl) prop-2-en-1-one]: the Binding % entry (compounds of structure (I)) is on record as “+++ (+++ indicates binding activity greater than 90%)”.
